Measurements published in EP1009397B1, “USE OF N,N-BIS (PHENYLCARBAMOYLMETHYL) DIMETHYLAMMONIUM CHLORIDE AND DERIVATIVES IN THE TREATMENT OF CHRONIC PAIN” (UCB Farchim S.A., priority 1997, dated 1999).

Key:
[1] = test system: CD-1 mice; assay: Formalin Tail Test; type: in vivo
Description: The protocol of this test is similar to that for the Paw Test described above, except that the injection of formalin was in the dorsal mid-tail region of the mouse instead of the hind paw. Behaviors such as licking of the tail (with and without lifting the tail), grooming, exploring and resting were recorded every two minutes for sixty minutes after injection of formalin (30 µl of 2.5% formalin)
Two modes of administration (subcutaneous and oral) of Compound I were studied. […] The ED50 was determined to be 40 mg/kg.
In the oral administration study, CD-1 mice weighing 15-30 grams each (n=8 or 4 for each dose of Compound I) were orally administered with either gum arabic (vehicle), 300 mg/kg or 700 mg/kg Compound I, 60 minutes prior to formalin (2.5%, 30 µ1)_injection. Behaviors such as licking of the tail (with and without lifting the tail), grooming, exploring and resting were recorded every two minutes for sixty minutes after injection of formalin (30 µl of 2.5% formalin). At an oral dose of 700mg/kg, Compound I reduced licking by 62%, while at 300 mg/kg, a reduction of 50% was determined

[2] = Acute toxicity in mice; settings: mouse, in vivo, read-out: survival dose values (LD50)
[3] = Acute toxicity in rats; settings: rat, in vivo, ip; intraperitoneal administration to rats; read-out: survival dose values (LD50)
[4] = Acute toxicity in rabbits; settings: rabbit, in vivo; intravenous administration to rabbits; read-out: survival dose values (LD50)
Description: The experiments were carried out on animals that were administered intravenously or orally escalating doses of the test compounds.

[5] = test system: CD-I mouse; assay: Formalin Paw Test; type: in vivo, mice; settings: for ED50: subcutaneous
Description: In this test a hind paw (footpad) of conscious mice was injected with a formalin solution, which produced a painful stimulus, to which the mice reacted by licking the foot. Pretreatment of the animal with an effective analgesia reduced the pain and consequently the licking behavior. […] At t=0 minutes, either saline, […], 20, 40, 80 or 160 mg/kg was injected subcutaneously under the dorsal skin of the neck of a CD-I mouse (n=8 for each dose of Compound I) that weighed in the range of 20-45 grams. At t=60 minutes, formalin (2 different amounts were used in separate studies) was injected into the right hind paw (footpad) of each mouse, and the animal was released into the observation chamber (24-26°C). The mice were videotaped in groups of four for 60 minutes. The observations were made from viewing the videotapes activity, and the investigators looked for the following pain behavioral traits: licking of the right hind paw; lifting and licking of the right hind paw; resting/sleeping/being still; exploring or grooming (F.V. Abbott, K.B.J. Franklin and R.F. Wesbrook, Pain, 1995, 60 191-202). The corresponding behavioral traits were checked and recorded for each animal every two minutes for sixty minutes after the formalin injection.

[6] = test system: rabbit; settings: intravenous administration; cited from earlier work
[7] = test system: mouse tail; assay: Regional analgesic effects in mice (tourniquet at tail base, tail vein injection, tail-flick); type: in vivo; settings: injection into the tail vein, tourniquet around the base of the tail
Source text: In these experiments a tourniquet is placed around the base of a mouse tail so as to occlude blood flow to and from the tail.

[8] = test system: guinea pig; settings: intravenous administration; cited from earlier work
[9] = test system: human forearm; assay: Intradermal injections into the human forearm; type: in vivo; settings: intradermal injections of small volumes of solutions

Structure (SMILES): C[N+](C)(CC(=O)Nc1ccccc1)CC(=O)Nc1ccccc1.[Cl-] [Compound I, N, N-Bis (phenylcarbamoylmethyl) dimethylammonium chloride]
- ED50 ([1]; Mus musculus, sc, subcutaneous administration, 30 µl of 2.5% formalin): 40 mg/kg
- reduction of licking ([1]; oral 300 mg/kg, 60 minutes prior to formalin (2.5%, 30 µ1)): 50%
- reduced licking ([1]; oral dose of 700mg/kg, 60 minutes prior to formalin (2.5%, 30 µ1)): 62%
- inhibition of the delayed phase of licking ([1]; subcutaneous administration under the dorsal skin of the neck, 30 µl of 2.5% formalin in dorsal mid-tail region): dose related inhibition of the delayed phase of licking
- LD50 ([2]; ip, intraperitoneal administration to mice): 125 mg/kg
- LD50 ([2]; sc, subcutaneous injection to mice): 264 mg/kg
- LD50 ([2]; oral administration to mice): 117 mg/kg
- LD50 [3]: 150 mg/kg
- LD50 [4]: 17 mg/kg
- ED50 ([5]; Mus musculus, sc, 20 µl of 2.0% formalin injected): 50 mg/kg
- ED50 ([5]; Mus musculus, sc, 30 µl of 2.5% formalin injected): 145 mg/kg
- inhibition at 160 mg/kg ([5]; Mus musculus, sc, 20 µl of 2.0% formalin injected, at 160 mg/kg subcutaneous): > 80%
- alteration of animal behavior ([5]; at the doses of the formalin paw test (up to 160 mg/kg subcutaneous)): no evident alteration of animal behavior other than the reduced reaction to the noxious stimulus
- inhibition of the delayed phase of licking ([5]; subcutaneous under the dorsal skin of the neck, 60 minutes before formalin into right hind paw): dose related inhibition of the delayed phase of licking
- Toxicity (LD100) [6]: 50 mg/kg
- block of tail-flick in response to heat [7]: not to heat
- block of tail-flick in response to pin-prick [7]: rapidly produced block of tail-flick in response to pin-prick
- Toxicity (LD100) [8]: 36 mg/kg
- effect on sensation of heat or touch [9]: little or no effect on sensation of heat or touch
- inhibition of pain induced by pin-prick [9]: long-lasting inhibition of pain induced by pin-prick

Structure (SMILES): CCCCN1CCCCC1C(=O)Nc1c(C)cccc1C (centres unmarked) [bupivacaine]
- effect on sensation of heat or touch [9]: inhibited equally sensation of pain, heat and touch
- inhibition of pain induced by pin-prick [9]: inhibited equally sensation of pain, heat and touch

Structure (SMILES): CCN(CC)CC(=O)Nc1c(C)cccc1C [lidocaine, reference compound]
- block of tail-flick in response to heat [7]: inhibits responses both to pin-prick and to heat
- block of tail-flick in response to pin-prick [7]: inhibits responses both to pin-prick and to heat
- effect on sensation of heat or touch [9]: inhibited equally sensation of pain, heat and touch
- inhibition of pain induced by pin-prick [9]: inhibited equally sensation of pain, heat and touch
